Assay results as given in patent US9421209B2, “Kinase modulators” (Rhizen Pharmaceuticals SA, priority 2009, dated 2016).
Read-outs that look alike come from different tables or passages of the source.

Legend:
[1] = target: P110α (Homo sapiens, UniProt P42336); test: Fluorescent (HTRF) determination of PI3K enzyme activity, α isoform; assay type: biochemical
Description: (§1) Assay 1: Fluorescent determination of PI3Kinase Kinase enzyme activity
(§2) Phosphoinositide 3 kinases (PI3K) belong to a class of lipid kinases that play a critical role in the regulation of several key cellular processes. The PI3K are capable of phosphorylating the 3-hydroxy position of phosphoinositols thereby generating second messengers involved in downstream signalling events. The homogenous time resolved fluorescence (HTRF) assay allows detection of 3,4,5-triphosphate (PIP3) formed as a result of phosphorylation of phosphotidylinositol 4,5-biphosphate (PIP2) by PI3K isoforms such as α, β, γ or δ.
(§3) PI3K isoform activity for α, β, γ or δ was determined using a PI3K human HTRF™ Assay Kit (Millipore, Billerica, Mass.) with modifications. All incubations were carried out at room temperature. Briefly, 0.5 μl of 40× inhibitor (in 100% DMSO) or 100% DMSO were added to each well of a 384-well black plate (Greiner Bio-One, Monroe, N.C.) containing 14.5 μl 1× reaction buffer/PIP2 (10 mM MgCl2, 5 mM DTT, 1.38 μM PIP2) mix with or without enzyme and incubated for 10 min. After the initial incubation, 5 μl/well of 400 μM ATP was added and incubated for an additional 30 minutes. Reaction was terminated by adding 5 μl/well stop solution (Millipore, Billerica, Mass.). Five microliters of detection mix (Millipore, Billerica, Mass.) were then added to each well and was incubated for 6-18 h in the dark. HRTF ratio was measured on a microplate reader (BMG Labtech., Germany) at an excitation wavelength of 337 nm and emission wavelengths of 665 and 620 nm with an integration time of […]. Data were analyzed using Graphpad Prism (Graphpad software; San Diego Calif.) for IC50 determination. Percent inhibition was calculated based on the values for the blank and enzyme controls. The results are provided below in Table 2 & 3.

[2] = target: P110γ (Homo sapiens, UniProt P48736); test: Fluorescent (HTRF) determination of PI3K enzyme activity, γ isoform; assay type: biochemical
Chain of P110γ (P48736 whole entry, canonical isoform): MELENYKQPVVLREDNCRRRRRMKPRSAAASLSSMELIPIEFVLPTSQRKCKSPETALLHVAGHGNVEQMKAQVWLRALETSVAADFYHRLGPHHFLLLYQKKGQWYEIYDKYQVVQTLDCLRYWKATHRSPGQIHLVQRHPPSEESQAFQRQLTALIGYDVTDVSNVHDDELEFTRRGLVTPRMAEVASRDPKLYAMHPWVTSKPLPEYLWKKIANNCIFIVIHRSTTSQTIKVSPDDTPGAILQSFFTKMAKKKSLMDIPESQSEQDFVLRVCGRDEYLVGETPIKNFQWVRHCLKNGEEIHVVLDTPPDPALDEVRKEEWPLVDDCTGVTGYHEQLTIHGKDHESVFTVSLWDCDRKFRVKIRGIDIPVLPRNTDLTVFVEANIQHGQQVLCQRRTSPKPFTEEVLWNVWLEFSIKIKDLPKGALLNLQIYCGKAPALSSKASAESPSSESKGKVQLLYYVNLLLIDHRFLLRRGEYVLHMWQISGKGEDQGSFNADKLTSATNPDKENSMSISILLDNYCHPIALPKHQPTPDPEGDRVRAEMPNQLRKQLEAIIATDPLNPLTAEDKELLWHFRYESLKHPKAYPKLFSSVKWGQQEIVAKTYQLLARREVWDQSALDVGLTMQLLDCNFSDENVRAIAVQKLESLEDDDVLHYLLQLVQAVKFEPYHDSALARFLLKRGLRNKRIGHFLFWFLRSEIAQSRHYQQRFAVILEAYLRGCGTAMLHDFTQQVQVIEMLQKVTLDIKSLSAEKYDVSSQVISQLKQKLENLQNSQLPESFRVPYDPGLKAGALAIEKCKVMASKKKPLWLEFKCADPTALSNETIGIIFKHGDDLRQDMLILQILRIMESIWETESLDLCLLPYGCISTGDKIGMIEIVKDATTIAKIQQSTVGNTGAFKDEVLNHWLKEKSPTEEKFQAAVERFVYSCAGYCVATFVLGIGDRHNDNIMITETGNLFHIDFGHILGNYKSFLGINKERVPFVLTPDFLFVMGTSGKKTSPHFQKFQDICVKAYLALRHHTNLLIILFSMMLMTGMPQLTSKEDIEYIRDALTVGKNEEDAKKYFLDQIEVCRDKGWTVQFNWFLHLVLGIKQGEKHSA
Description: as §1, §2, §3

[3] = target: P110β (Homo sapiens, UniProt P42338); test: Fluorescent (HTRF) determination of PI3K enzyme activity, β isoform; assay type: biochemical
Chain of P110β (P42338 whole entry, canonical isoform): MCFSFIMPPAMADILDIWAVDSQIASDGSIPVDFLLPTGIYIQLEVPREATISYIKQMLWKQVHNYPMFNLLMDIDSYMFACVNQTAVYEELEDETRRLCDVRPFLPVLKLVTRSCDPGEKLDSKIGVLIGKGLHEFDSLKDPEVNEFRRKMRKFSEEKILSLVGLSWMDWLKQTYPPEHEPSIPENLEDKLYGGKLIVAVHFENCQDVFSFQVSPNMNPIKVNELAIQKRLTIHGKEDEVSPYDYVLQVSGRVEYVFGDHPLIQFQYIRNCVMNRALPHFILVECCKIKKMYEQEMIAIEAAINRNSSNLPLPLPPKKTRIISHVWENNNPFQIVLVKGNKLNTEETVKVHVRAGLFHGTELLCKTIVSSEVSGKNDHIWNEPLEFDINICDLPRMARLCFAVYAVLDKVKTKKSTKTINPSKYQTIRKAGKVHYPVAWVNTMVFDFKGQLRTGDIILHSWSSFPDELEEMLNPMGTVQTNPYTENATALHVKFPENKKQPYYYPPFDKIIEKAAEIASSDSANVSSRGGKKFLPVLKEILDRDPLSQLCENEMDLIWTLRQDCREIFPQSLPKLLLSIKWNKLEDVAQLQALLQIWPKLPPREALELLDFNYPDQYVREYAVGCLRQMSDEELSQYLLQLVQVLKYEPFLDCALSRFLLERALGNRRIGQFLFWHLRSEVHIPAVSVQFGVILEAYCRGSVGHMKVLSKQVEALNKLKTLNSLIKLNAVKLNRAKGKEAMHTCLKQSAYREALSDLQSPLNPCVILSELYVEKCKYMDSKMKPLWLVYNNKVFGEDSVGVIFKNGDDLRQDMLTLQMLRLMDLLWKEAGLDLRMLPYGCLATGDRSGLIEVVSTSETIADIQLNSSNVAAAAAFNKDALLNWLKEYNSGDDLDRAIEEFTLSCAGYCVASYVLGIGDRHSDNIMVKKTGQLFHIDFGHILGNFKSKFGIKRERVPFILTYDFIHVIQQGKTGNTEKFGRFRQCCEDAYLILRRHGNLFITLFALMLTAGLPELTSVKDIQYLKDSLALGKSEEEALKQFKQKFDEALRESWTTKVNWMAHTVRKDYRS
Chain of P110β (P27986 whole entry partner, canonical isoform): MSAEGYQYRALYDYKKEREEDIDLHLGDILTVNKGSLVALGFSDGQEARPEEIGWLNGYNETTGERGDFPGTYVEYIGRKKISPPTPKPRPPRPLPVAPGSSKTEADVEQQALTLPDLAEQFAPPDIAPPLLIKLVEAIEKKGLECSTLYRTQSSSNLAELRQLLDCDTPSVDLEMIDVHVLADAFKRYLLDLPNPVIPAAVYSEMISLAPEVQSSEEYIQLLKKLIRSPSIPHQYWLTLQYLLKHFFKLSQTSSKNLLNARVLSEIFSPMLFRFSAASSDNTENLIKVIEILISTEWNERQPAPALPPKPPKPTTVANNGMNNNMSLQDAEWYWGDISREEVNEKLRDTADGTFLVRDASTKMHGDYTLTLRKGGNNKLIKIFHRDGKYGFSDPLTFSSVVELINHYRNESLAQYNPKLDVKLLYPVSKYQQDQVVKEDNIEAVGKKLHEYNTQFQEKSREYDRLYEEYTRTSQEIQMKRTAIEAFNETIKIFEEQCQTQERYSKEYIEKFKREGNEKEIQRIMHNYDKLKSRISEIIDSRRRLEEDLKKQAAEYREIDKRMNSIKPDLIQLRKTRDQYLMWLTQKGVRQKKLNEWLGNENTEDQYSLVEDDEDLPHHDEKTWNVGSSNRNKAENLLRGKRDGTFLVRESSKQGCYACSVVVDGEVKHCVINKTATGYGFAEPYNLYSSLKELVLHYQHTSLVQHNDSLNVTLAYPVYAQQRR
Description: as §1, §2, §3

[4] = target: P110 δ/Pi3K δ (Homo sapiens, UniProt O00329); test: Fluorescent (HTRF) determination of PI3K enzyme activity, δ isoform; assay type: biochemical; parameters: inhibition: dose or concentration left out as unconfirmed
Chain of P110 δ/Pi3K δ (O00329 whole entry, canonical isoform): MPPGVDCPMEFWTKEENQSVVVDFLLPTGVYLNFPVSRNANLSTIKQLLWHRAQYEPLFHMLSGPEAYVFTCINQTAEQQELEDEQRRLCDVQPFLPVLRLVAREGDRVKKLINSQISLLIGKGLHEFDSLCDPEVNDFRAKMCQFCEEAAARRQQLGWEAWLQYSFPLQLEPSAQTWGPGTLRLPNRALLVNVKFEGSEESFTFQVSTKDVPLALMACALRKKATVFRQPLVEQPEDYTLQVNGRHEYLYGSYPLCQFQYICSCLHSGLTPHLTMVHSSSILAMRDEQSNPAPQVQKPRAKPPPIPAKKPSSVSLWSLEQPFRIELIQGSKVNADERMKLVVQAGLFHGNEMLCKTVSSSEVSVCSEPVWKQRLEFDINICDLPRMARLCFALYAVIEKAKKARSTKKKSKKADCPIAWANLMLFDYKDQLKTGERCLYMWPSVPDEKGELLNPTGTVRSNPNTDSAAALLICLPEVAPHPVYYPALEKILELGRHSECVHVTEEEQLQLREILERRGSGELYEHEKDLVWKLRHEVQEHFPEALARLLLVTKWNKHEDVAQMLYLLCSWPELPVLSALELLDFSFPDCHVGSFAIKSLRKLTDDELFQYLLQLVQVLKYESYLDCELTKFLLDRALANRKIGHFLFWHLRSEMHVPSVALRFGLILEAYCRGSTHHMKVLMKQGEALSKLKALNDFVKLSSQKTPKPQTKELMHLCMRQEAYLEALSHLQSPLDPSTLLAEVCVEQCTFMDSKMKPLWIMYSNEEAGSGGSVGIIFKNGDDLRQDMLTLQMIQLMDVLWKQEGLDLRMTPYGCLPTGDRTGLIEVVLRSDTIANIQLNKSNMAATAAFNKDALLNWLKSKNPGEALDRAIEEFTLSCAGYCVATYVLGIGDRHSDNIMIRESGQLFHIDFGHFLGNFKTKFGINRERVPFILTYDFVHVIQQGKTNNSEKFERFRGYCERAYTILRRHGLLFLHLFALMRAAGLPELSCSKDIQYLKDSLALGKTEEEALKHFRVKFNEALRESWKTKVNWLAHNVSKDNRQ
Chain of P110 δ/Pi3K δ (P27986 whole entry partner, canonical isoform): as the sequence (P27986 whole entry partner, canonical isoform) above
Procedure, shortened: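 HTRF kit detecting PIP3 formed from PIP2 by human PI3Kδ, at room temperature. Reaction started with 400 μM ATP (addition concentration) for 30 min, then stopped, and detection mix incubated 6–18 h in the dark. Percent inhibition taken against blank and enzyme controls, and IC50 fitted.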

[5] = read-out: P110 δ/ Pi3K δ IC 50 nM
[6] = read-out: P110 δ/Pi3K δ IC 50 nM

Chain of P110α (P42336 whole entry, canonical isoform): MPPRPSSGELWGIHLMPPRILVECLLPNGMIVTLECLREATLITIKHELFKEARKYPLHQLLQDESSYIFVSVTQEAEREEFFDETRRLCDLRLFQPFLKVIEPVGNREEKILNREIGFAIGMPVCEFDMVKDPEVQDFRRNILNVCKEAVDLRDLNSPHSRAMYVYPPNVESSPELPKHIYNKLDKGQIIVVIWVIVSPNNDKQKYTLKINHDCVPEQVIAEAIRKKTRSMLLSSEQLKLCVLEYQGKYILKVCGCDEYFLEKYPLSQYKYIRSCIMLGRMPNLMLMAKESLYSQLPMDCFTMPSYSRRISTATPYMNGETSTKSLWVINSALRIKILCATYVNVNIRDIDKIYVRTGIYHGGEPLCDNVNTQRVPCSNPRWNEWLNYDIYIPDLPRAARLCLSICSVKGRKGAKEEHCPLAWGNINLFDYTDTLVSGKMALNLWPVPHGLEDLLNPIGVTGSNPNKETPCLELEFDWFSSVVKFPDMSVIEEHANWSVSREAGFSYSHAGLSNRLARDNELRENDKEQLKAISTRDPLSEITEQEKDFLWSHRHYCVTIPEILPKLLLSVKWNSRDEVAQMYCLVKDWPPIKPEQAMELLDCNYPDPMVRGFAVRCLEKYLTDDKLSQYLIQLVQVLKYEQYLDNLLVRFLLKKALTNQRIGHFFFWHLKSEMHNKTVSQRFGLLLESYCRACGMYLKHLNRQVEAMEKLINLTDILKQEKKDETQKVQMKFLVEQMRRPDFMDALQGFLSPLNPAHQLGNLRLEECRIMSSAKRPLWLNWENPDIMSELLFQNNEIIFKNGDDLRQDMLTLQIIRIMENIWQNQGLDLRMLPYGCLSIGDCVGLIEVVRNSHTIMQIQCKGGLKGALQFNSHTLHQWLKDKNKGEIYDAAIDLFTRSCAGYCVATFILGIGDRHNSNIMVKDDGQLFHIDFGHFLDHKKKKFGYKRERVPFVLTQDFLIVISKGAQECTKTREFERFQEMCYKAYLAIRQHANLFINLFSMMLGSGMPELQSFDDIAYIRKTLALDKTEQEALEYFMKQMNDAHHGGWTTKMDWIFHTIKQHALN
Chain of P110α (P27986 whole entry partner, canonical isoform): as the sequence (P27986 whole entry partner, canonical isoform) above

inhibition at 1 µM [1] [%] | inhibition at 1 µM [2] [%] | inhibition at 1 µM [3] [%] | IC50 [4, 5] [nM] | melting point [°C] | inhibition at 1 µM [4] [%] | IC50 [4, 6] [nM] | inhibition [4] [%] | Compound
< 25 | 50 to 100 | < 25 |  | 280 to 283 | 50 to 100 | < 250 |  | Nc1ncnc2c1c(-c1cccc(O)c1)nn2Cc1oc2ccccc2c(=O)c1-c1cccc(F)c1 [Example 55, 2-((4-amino-3-(3-hydroxyphenyl)-1H-pyrazolo[3,4-d]pyrimidin-1-yl)methyl)-3-(3-fluorophenyl)-4H-chromen-4-one]
 | 25 to 50 | 25 to 50 |  | 214 to 216 |  |  | < 50 | CC(c1oc2ccccc2c(=O)c1-c1cccc(F)c1)n1nc(-c2ccc(OCc3ccccc3)c(Cl)c2)c2c(N)ncnc21 (stereo not drawn) [Example 140, 2-(1-(4-amino-3-(4-(benzyloxy)-3-chlorophenyl)-1H-pyrazolo[3,4-d]pyrimidin-1-yl)ethyl)-3-(3-fluorophenyl)-4H-chromen-4-one]
< 25 | < 25 | 50 to 100 |  | 154 to 158 | 50 to 100 | < 250 |  | Nc1ncnc2c1c(-c1cccc(O)c1)nn2Cc1oc2ccccc2c(=O)c1-c1ccccc1 [Example 53, 2-((4-Amino-3-(3-hydroxyphenyl)-1H-pyrazolo[3,4-d]pyrimidin-1-yl)methyl)-3-phenyl-4H-chromen-4-one]
< 25 | < 25 | 50 to 100 |  |  |  |  |  | COc1cccc(-c2nn(C(C)c3oc4ccccc4c(=O)c3-c3cccc(F)c3)c3ncnc(N)c23)c1 (stereo not drawn) [Example 51, 2-(1-(4-amino-3-(3-methoxyphenyl)-1H-pyrazolo[3,4-d]pyrimidin-1-yl)ethyl)-3-(3-fluorophenyl)-4H-chromen-4-one]
 | 25 to 50 | 25 to 50 |  | 218 to 220 |  |  | < 50 | CC(c1oc2ccccc2c(=O)c1-c1cccc(F)c1)n1nc(-c2ccc(Oc3ccccc3)cc2)c2c(N)ncnc21 (stereo not drawn) [Example 139, 2-(1-(4-amino-3-(4-phenoxyphenyl)-1H-pyrazolo[3,4-d]pyrimidin-1-yl)ethyl)-3-(3-fluorophenyl)-4H-chromen-4-one]
 | < 25 | 25 to 50 |  | 216 to 218 |  |  | < 50 | CCOc1ccc(-c2nn(C(C)c3oc4ccccc4c(=O)c3-c3cccc(F)c3)c3ncnc(N)c23)cc1F (stereo not drawn) [Example 143, 2-(1-(4-amino-3-(4-ethoxy-3-fluorophenyl)-1H-pyrazolo[3,4-d]pyrimidin-1-yl)ethyl)-3-(3-fluorophenyl)-4H-chromen-4-one]
 | < 25 | 25 to 50 |  | 218 to 220 |  |  | < 50 | CC(c1oc2ccccc2c(=O)c1-c1cccc(F)c1)n1nc(-c2cccc(N(C)C)c2)c2c(N)ncnc21 (stereo not drawn) [Example 142, 2-(1-(4-amino-3-(3-(dimethylamino)phenyl)-1H-pyrazolo[3,4-d]pyrimidin-1-yl)ethyl)-3-(3-fluorophenyl)-4H-chromen-4-one]
< 25 |  | < 25 |  | 254 to 257 | 50 to 100 | < 250 |  | CC(c1oc2ccccc2c(=O)c1-c1ccccc1)n1cnc2c(N)ncnc21 (stereo not drawn) [Example 23, 2-(1-(6-Amino-9H-purin-9-yl)ethyl)-3-phenyl-4H-chromen-4-one]

Further lines, the compound ahead of its results:

Compound | inhibition at 1 µM [1] [%] | inhibition at 1 µM [2] [%] | inhibition at 1 µM [3] [%] | IC50 [4, 5] [nM] | melting point [°C] | inhibition at 1 µM [4] [%] | IC50 [4, 6] [nM] | inhibition [4] [%]
Cc1n[nH]c2cc(-c3nn([C@H](C)c4oc5ccccc5c(=O)c4-c4cccc(F)c4)c4ncnc(N)c34)ccc12 (single isomer, unassigned) [Example 128, (+)-2-(1-(4-amino-3-(3-methyl-1H-indazol-6-yl)-1H-pyrazolo[3,4-d]pyrimidin-1-yl)ethyl)-3-(3-fluorophenyl)-4H-chromen-4-one] | < 25 | 25 to 50 | < 25 | < 250 |  |  |  | 
C[C@H](Nc1ncnc2[nH]cnc12)c1oc2ccccc2c(=O)c1-c1cccc(F)c1 [Example 47, (S)-2-(1-(9H-purin-6-ylamino)ethyl)-3-(3-fluorophenyl)-4H-chromen-4-one] | < 25 | 25 to 50 | 25 to 50 |  | 135 to 138 | 50 to 100 | < 250 | 
Cc1n[nH]c2ccc(-c3nn(C(C)c4oc5ccccc5c(=O)c4-c4cccc(F)c4)c4ncnc(N)c34)cc12 (stereo not drawn) [Example 106, 2-(1-(4-amino-3-(3-methyl-1H-indazol-5-yl)-1H-pyrazolo[3,4-d]pyrimidin-1-yl)ethyl)-3-(3-fluorophenyl)-4H-chromen-4-one] |  | 25 to 50 | < 25 |  | 254 to 256 |  |  | < 50
Cc1n[nH]c2cc(-c3nn(C(C)c4oc5ccc(F)cc5c(=O)c4-c4cccc(F)c4)c4ncnc(N)c34)ccc12 (stereo not drawn) [Example 108, 2-(1-(4-amino-3-(3-methyl-1H-indazol-6-yl)-1H-pyrazolo[3,4-d]pyrimidin-1-yl)ethyl)-6-fluoro-3-(3-fluorophenyl)-4H-chromen-4-one] |  | 50 to 100 | 25 to 50 | < 250 | 234 to 236 |  |  | 50 to 100
CC(C)Oc1ccc(-c2nn(C(C)c3oc4ccccc4c(=O)c3-c3cccc(F)c3)c3ncnc(N)c23)cc1Cl (stereo not drawn) [Example 141, 2-(1-(4-amino-3-(3-chloro-4-isopropoxyphenyl)-1H-pyrazolo[3,4-d]pyrimidin-1-yl)ethyl)-3-(3-fluorophenyl)-4H-chromen-4-one] |  | 50 to 100 | 25 to 50 |  | 198 to 200 |  |  | 50 to 100
C[C@H](Nc1ncnc2[nH]cnc12)c1oc2ccc(F)cc2c(=O)c1-c1cccc(F)c1 [Example 74, (S)-2-(1-(9H-purin-6-ylamino)ethyl)-6-fluoro-3-(3-fluorophenyl)-4H-chromen-4-one] |  | 25 to 50 | 25 to 50 |  | 203 to 206 | 50 to 100 | < 250 | 
CC(c1oc2ccccc2c(=O)c1-c1cccc(F)c1)n1cnc2c(N)ncnc21 (stereo not drawn) [Example 32, 2-(1-(6-Amino-9H-purin-9-yl)ethyl)-3-(3-fluorophenyl)-4H-chromen-4-one] | < 25 | < 25 | < 25 |  |  | 50 to 100 | < 250 | 
CCc1n[nH]c2cc(-c3nn(C(C)c4oc5ccccc5c(=O)c4-c4cccc(F)c4)c4ncnc(N)c34)ccc12 (stereo not drawn) [Example 110, 2-(1-(4-amino-3-(3-ethyl-1H-indazol-6-yl)-1H-pyrazolo[3,4-d]pyrimidin-1-yl)ethyl)-3-(3-fluorophenyl)-4H-chromen-4-one] |  | 50 to 100 | < 25 |  | 270 to 273 |  |  | 50 to 100
Cc1n[nH]c2cc(-c3nn(C(C)c4oc5ccc(F)cc5c(=O)c4-c4ccccc4)c4ncnc(N)c34)ccc12 (stereo not drawn) [Example 105, 2-(1-(4-amino-3-(3-methyl-1H-indazol-6-yl)-1H-pyrazolo[3,4-d]pyrimidin-1-yl)ethyl)-6-fluoro-3-phenyl-4H-chromen-4-one] |  | 50 to 100 | 50 to 100 | < 250 | 253 to 255 |  |  | 50 to 100
COc1ccc(-c2nn(C(C)c3oc4ccccc4c(=O)c3-c3cccc(F)c3)c3ncnc(N)c23)cc1F (stereo not drawn) [Example 84, 2-(1-(4-amino-3-(3-fluoro-4-methoxyphenyl)-1H-pyrazolo[3,4-d]pyrimidin-1-yl)ethyl)-3-(3-fluorophenyl)-4H-chromen-4-one] | < 25 |  | < 25 | < 250 | 222 to 224 |  |  | 50 to 100
Nc1ncnc2c1ncn2Cc1oc2ccc(F)cc2c(=O)c1-c1cccc(F)c1 [Example 119, 2-((6-amino-9H-purin-9-yl)methyl)-6-fluoro-3-(3-fluorophenyl)-4H-chromen-4-one] | < 25 |  | < 25 |  | 180 to 183 |  |  | < 50
